One block for each compound: values may come before it.
Assays:
COLO 320 = assay: Antiproliferative activity against human COLO 320 assessed as growth inhibition measured after 24 hrs; format: functional
[1] = Binding affinity to Wnt/beta catenin (unknown origin) assessed as inhibition constant; parameters: species or system Homo sapiens
[2] = Antiproliferative activity against human SW403 cells assessed as reduction in cell viability; format: functional, cell-based; settings: SW-403
HT-29 = assay: Antiproliferative activity against human HT-29 cells assessed as reduction in cell viability; format: functional, cell-based
HCT-116 = assay: Antiproliferative activity against human HCT-116 cells assessed as reduction in cell viability; format: functional, cell-based
LNCaP C4-2B = assay: Antiproliferative activity against human LNCaP C4-2B cells assessed as inhibition of cell growth by Celltiter-Glo assay; format: functional, cell-based
[3] = molecular target: Catenin beta-1/Transcription factor 7 (Homo sapiens, UniProt P35222+P36402); assay: Inhibition of beta catenin/TCF (unknown origin) by immunoprecipitation method; format: protein assay
Sequence of Catenin beta-1/Transcription factor 7 (P36402 whole entry, one chain of several): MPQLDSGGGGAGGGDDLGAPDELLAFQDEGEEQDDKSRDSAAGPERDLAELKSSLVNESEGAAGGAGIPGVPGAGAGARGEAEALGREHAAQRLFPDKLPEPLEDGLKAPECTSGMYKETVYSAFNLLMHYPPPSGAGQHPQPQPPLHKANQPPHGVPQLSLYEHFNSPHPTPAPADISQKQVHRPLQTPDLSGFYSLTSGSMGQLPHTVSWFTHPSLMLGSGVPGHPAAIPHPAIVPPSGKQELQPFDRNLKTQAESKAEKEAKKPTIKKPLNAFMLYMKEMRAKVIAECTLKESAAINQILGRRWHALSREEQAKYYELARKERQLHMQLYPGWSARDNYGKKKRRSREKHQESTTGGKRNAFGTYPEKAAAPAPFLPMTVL

Catenin beta-1/BCL9L = molecular target: T1, Catenin beta-1/BCL9L (Homo sapiens, UniProt P35222+Q86UU0); assay: Binding affinity to beta catenin (unknown origin) to BCL assessed as inhibition constant by alpha screening assay; format: protein-complex assay
T1 sequence (P35222 whole entry): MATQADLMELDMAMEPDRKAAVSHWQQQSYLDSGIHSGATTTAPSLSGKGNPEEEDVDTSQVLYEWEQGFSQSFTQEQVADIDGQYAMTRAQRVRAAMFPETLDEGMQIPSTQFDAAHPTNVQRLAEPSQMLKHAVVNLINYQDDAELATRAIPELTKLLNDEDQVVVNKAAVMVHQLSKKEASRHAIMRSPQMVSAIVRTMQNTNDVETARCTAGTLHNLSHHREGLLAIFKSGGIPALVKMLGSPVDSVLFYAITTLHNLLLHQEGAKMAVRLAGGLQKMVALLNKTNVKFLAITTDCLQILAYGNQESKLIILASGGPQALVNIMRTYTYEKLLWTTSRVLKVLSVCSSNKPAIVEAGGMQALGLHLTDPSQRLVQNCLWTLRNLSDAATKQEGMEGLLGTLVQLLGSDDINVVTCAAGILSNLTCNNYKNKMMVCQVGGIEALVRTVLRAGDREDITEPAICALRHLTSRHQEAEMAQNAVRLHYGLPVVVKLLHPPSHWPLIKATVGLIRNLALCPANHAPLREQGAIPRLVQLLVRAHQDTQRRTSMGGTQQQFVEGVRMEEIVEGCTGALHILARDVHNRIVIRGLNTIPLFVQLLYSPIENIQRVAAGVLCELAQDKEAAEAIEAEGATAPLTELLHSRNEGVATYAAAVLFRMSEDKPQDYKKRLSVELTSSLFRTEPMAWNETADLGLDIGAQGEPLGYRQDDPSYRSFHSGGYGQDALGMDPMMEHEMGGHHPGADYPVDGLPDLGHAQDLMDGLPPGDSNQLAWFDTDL
T1 sequence (Q86UU0 whole entry): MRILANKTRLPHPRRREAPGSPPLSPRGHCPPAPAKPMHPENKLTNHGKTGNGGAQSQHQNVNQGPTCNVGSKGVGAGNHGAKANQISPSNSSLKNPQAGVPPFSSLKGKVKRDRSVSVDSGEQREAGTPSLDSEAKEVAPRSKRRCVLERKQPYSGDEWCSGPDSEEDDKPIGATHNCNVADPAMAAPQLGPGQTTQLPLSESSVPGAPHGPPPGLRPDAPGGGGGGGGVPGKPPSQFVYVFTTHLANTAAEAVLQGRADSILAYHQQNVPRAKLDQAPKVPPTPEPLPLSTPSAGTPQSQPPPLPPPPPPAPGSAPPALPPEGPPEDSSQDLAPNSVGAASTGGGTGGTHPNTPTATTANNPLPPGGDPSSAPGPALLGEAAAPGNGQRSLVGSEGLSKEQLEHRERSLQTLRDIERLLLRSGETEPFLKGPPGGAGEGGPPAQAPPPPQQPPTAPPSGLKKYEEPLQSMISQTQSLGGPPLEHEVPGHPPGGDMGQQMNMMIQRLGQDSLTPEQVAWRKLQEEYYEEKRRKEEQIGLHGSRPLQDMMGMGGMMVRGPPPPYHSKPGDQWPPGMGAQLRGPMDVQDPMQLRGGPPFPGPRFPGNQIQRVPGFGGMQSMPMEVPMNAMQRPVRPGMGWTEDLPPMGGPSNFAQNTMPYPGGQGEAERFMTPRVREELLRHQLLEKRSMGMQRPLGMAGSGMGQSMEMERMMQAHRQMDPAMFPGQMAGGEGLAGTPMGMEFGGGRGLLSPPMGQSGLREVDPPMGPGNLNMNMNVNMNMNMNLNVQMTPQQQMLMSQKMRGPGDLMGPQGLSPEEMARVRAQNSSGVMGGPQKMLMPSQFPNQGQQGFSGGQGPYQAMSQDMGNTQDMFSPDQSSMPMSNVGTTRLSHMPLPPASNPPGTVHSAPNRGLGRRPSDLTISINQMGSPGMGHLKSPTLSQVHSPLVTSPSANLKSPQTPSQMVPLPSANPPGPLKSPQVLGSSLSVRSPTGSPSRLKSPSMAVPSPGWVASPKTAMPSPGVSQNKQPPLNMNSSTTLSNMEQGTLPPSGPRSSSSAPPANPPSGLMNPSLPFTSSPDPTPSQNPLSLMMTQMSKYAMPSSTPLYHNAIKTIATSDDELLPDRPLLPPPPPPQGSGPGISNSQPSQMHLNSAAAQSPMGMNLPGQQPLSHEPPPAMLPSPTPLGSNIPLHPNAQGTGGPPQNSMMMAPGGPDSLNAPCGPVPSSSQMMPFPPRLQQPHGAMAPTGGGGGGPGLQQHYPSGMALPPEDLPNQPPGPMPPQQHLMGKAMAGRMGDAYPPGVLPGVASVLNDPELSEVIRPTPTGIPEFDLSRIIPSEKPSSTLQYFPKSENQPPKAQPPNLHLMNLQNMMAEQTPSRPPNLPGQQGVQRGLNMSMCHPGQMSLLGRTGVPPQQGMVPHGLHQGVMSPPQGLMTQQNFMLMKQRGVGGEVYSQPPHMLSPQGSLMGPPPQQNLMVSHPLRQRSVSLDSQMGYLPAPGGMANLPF

Catenin beta-1 [4] = molecular target: T2, Catenin beta-1 (Homo sapiens, UniProt P35222); assay: Binding affinity to human beta catenin assessed as dissociation constant
T2 sequence (P35222 whole entry): T1 sequence (P35222 whole entry)

[5] = Inhibition of beta catenin/APC (unknown origin); parameters: species or system Homo sapiens
[6] = Inhibition of Wnt2 signalling in human SW480 cells assessed as reduction in cyclin D1 expression […] measured after 24 hrs by western blot analysis; format: cell-based; settings: SW480, 24 h
Catenin beta-1 [7] = molecular target: T2, Catenin beta-1; assay: Binding affinity to beta catenin (unknown origin) assessed as dissociation constant by VP-ITC method
Catenin beta-1 [8] = molecular target: Catenin beta-1 (Homo sapiens, UniProt P35222); assay: Binding affinity to human beta catenin double mutant assessed as dissociation constant by alpha assay

SMILES: C[C@@H]1CN(c2cc(F)c3c(c2)N(C)C(=O)C32CCN(c3nc4c(c(=O)[nH]3)CCCN4C)CC2)C[C@H](C)O1
GI50 (COLO 320): 230 nM

SMILES: COc1ccc([C@@H](C)N2CC(=O)N[C@H](C)C(=O)CN(CCc3ccccc3Oc3ccccc3)CC(=O)N(c3cc(OC)cc(OC)c3)CC(=O)N(CCCOC(C)C)CC(=O)N([C@H](C)c3ccc(OC)cc3)CC2=O)cc1
IC50 (LNCaP C4-2B): 195 nM | IC50 [3]: 10 µM

SMILES: O=C(c1cc(F)cc(N2CCNCC2)c1)N1CCN(C(=O)c2ccc(O[C@@H]3CCNC3)c(C3CCCCC3)c2)CC1
Ki (Catenin beta-1/BCL9L): 5.2 µM

SMILES: CC(=O)N[C@@H](CCC(=O)O)CN(CC(=O)N[C@@H](CCCNC(=N)N)CN(CC(=O)N[C@@H](CCCNC(=N)N)CN(CC(=O)NC(CC(C)C)CN(CC(=O)N[C@H](CN(CC(=O)N[C@@H](CC(C)C)CN(CC(=O)N[C@@H](CCCNC(=N)N)CN(CC(=O)N[C@@H](C)CN(CC(=O)N[C@@H](CC(C)C)CN(CC(=O)N[C@@H](CC(C)C)CN(CC(N)=O)SCc1ccccc1)S(=O)(=O)CC(C)C)S(C)(=O)=O)S(=O)(=O)CC(C)C)S(=O)(=O)CCN)S(=O)(=O)CC(C)C)C(C)O)S(=O)(=O)CCN)S(C)(=O)=O)S(C)(=O)=O)S(=O)(=O)CCN (stereo partly drawn)
Kd (Catenin beta-1 [4]): 160 nM

SMILES: CCOC(=O)CC[C@H](NC(=O)[C@H](CC(=O)OCC)NC(=O)[C@H](Cc1ccc2ccccc2c1)NC(=O)Cc1cc2cc(Cl)ccc2[nH]1)C(=O)OC
IC50 [5]: 28.7 µM | IC50 [6]: 10.8 µM

SMILES: CC[C@H](C)[C@H]1NC(=O)[C@](C)(NC(=O)[C@H](CCC(N)=O)NC(=O)[C@@H]2CCCN2C(=O)[C@H](CC(N)=O)NC(=O)[C@H](CCC(=O)O)NC(=O)CCNC(=S)Nc2ccc3c(c2)C(=O)OC32c3ccc(O)cc3Oc3cc(O)ccc32)CCC/C=C/CCC[C@](C)(C(=O)N[C@@H](Cc2cnc[nH]2)C(=O)N[C@H](C(=O)N[C@@H](CCC(N)=O)C(=O)N[C@@H](CCCNC(=N)N)C(=O)N[C@H](C(=O)N[C@@H](CCSC)C(N)=O)C(C)C)C(C)C)NC(=O)[C@H](CC(=O)O)NC(=O)[C@H](C(C)(C)C)NC1=O
Kd (Catenin beta-1 [7]): 60 nM

Further lines, with some results ahead:

Ki [1]: 1200 nM
SMILES: COc1ccc(-c2c(C(=O)OCCOCCOCCOCCN)c3c4ccccc4oc(=O)c3n2C)cc1

EC50 (HT-29): 132 nM | EC50 (HCT-116): 123 nM
SMILES: CN(c1ccc(C(F)(F)F)cc1)S(=O)(=O)c1ccc(C(=O)Nc2nc(-c3ccccn3)cs2)cc1
EC50 [2]: 123 nM

Kd (Catenin beta-1 [8]): 97 nM
SMILES: O=C(Nc1ccc(-c2ccc(F)cc2)c(O[C@H]2CCNC2)c1)c1ccc(O[C@H]2CCNC2)c(-c2ccc(F)c(F)c2)c1

Reference: ChEMBL document CHEMBL5226302, “Small-Molecule Inhibitors Targeting the Canonical WNT Signaling Pathway for the Treatment of Cancer” (J Med Chem, 2021)
